The values below come from patent US7973047B2, “Beta-Secretase modulators and methods of use” (Amgen Inc., priority 2010, dated 2011).

In the assay the test system is Aβ40 in conditioned medium of cells stably expressing Amyloid Precursor Protein (APP). Kind of assay: BACE cell-based assay: Aβ40 in conditioned medium by sandwich ELISA. Particulars: cell based assay data, Table 4; unit inferred; read-out: Cell Assay. Put shortly: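 Aβ40 in conditioned medium was read by time-resolved fluorescence sandwich ELISA (capture pAb40, detection biotinylated 6E10, 4° C incubations). Compounds were applied for 24 h to cells stably expressing APP, at 10 doses from 100 or 10 μM top, 0.1% DMSO. IC50 derived from percent of control.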
Consider `CC(=O)N[C@@H](CCC(F)(F)F)[C@H](O)CN[C@H]1CC2(CCC2)Oc2ncc(CC(C)(C)C)cc21` [compound 738, N-((1S)-1-((1R)-2-(((4′S)-6′-(2,2-dimethylpropyl)-3′,4′-dihydrospiro[cyclobutane-1,2′-pyrano[2,3-b]pyridin]-4′-yl)amino)-1-hydroxyethyl)-4,4,4-trifluorobutyl)acetamide], for which the IC50 was 1420 nM.

In the case of `C/C=C/C[C@H](NC(C)=O)[C@H](O)CN[C@H]1CC2(CCC2)Oc2ncc(CC(C)(C)C)cc21` [compound 739, N-((1S,3E)-1-((1R)-2-(((4′S)-6′-(2,2-dimethylpropyl)-3′,4′-dihydrospiro[cyclobutane-1,2′-pyrano[2,3-b]pyridin]-4′-yl)amino)-1-hydroxyethyl)-3-penten-1-yl)acetamide], the IC50 is 298 nM.

Regarding `C=C[C@H](NC(C)=O)[C@H](O)CN[C@H]1CC2(CCC2)Oc2ncc(CC(C)(C)C)cc21` [compound 740, N-((1S)-1-((1R)-2-(((4′S)-6′-(2,2-dimethylpropyl)-3′,4′-dihydrospiro[cyclobutane-1,2′-pyrano[2,3-b]pyridin]-4′-yl)amino)-1-hydroxyethyl)-2-propen-1-yl)acetamide], the IC50 was 3330 nM.

As for `C=CC[C@H](NC(C)=O)[C@H](O)CN[C@H]1CC2(CCC2)Oc2ncc(CC(C)(C)F)cc21` [compound 741, N-((1S)-1-((1R)-2-(((4′S)-6′-(2-fluoro-2-methylpropyl)-3′,4′-dihydrospiro[cyclobutane-1,2′-pyrano[2,3-b]pyridin]-4′-yl)amino)-1-hydroxyethyl)-3-buten-1-yl)acetamide], the IC50 came out at 193 nM.

Regarding `CCC#CC[C@H](NC(C)=O)[C@H](O)CN[C@H]1CC2(CCC2)Oc2ncc(CC(C)(C)C)cc21` [compound 742], the IC50 worked out at 286 nM.

Consider `Cc1nccn1CC(=O)N[C@@H](Cc1ccccc1)[C@H](O)CN[C@H]1CC2(CCC2)Oc2ccc(CC(C)(C)C)cc21` [compound 744, N-((1S,2R)-3-(((4S)-6-(2,2-dimethylpropyl)-3,4-dihydrospiro[chromene-2,1′-cyclobutan]-4-yl)amino)-2-hydroxy-1-(phenylmethyl)propyl)-2-(1H-2-methyl-imidazol-1-yl) acetamide], for which the IC50 came to 5.72 nM.

Turning to `CC(=O)N[C@@H](Cc1cc(F)cc(F)c1)[C@H](O)CN[C@H]1CC2(CCC2)Oc2ncc(Br)cc21` [compound 745], the IC50 is 33.1 nM.

Take `CC(=O)N[C@@H](Cc1cc(F)cc(F)c1)[C@H](O)CN[C@H]1CC2(CCC2)Oc2ncc(-n3cccn3)cc21` [compound 746]: the IC50 stood at 215 nM.

For `CC(=O)N[C@@H](Cc1cc(F)cc(F)c1)[C@H](O)CN[C@H]1CC2(CCC2)Oc2ncc(-n3ccnc3)cc21` [compound 747], the IC50 came out at 498 nM.

On to `CC(=O)N[C@@H](Cc1cc(F)cc(F)c1)[C@H](O)CN[C@H]1CC2(CCC2)Oc2ncc(-c3nccs3)cc21` [compound 748], for which the IC50 came out at 1050 nM.

Take `CC(=O)N[C@@H](Cc1ccccc1)[C@H](O)CN[C@H]1CC2(CCC2)Oc2cnc(CC(C)(C)C)cc21` [compound 749]: the IC50 came to 14 nM.

For `CC(=O)N[C@@H](Cc1cc(F)cc(Cl)c1)[C@H](O)CN[C@H]1CC2(CCC2)Oc2cnc(CC(C)(C)C)cc21` [compound 750], the IC50 came to 20.3 nM.

For the molecule `CC(=O)N[C@@H](Cc1cc(F)cc(Cl)c1)[C@H](O)CN[C@H]1CC2(CCC2)Oc2cnc(CC(C)(C)O)cc21` [compound 751], the IC50 is 38.8 nM.

As to `CC(=O)N[C@@H](Cc1cc(F)cc(Cl)c1)[C@H](O)CN[C@H]1CC2(CCC2)Oc2c1cc(CC(C)(C)C)nc2Cl` [compound 752], the IC50 worked out at 42.2 nM.

In the case of `CC(=O)N[C@@H](Cc1ccccc1)[C@H](O)CN[C@H]1CC2(CCC2)Oc2c1cc(CC(C)(C)C)nc2Cl` [compound 753], the IC50 is 13.8 nM.

As for `CC(=O)N[C@@H](Cc1ccccc1)[C@H](O)CN[C@H]1CC2(CCC2)Oc2c1cc(CC(C)(C)C)nc2N1CCOCC1` [compound 754], the IC50 is 52.2 nM.

As to `CC(=O)N[C@@H](Cc1ccccc1)[C@H](O)CN[C@H]1CC2(CCC2)Oc2c1cc(CC(C)(C)C)nc2N1CCCC1` [compound 755], the IC50 stood at 6.5 nM.

As for `CC(=O)N[C@@H](Cc1cc(F)cc(N(C)C)c1)[C@H](O)CN[C@H]1CC(C)(C)Oc2c1cc(CC(C)(C)C)nc2N(C)C` [compound 756], the IC50 was determined as 200 nM.

Regarding `CC(=O)N[C@@H](Cc1cc(F)cc(Cl)c1)[C@H](O)CN[C@H]1CC(C)(C)Oc2c1cc(CC(C)(C)C)nc2N(C)C` [compound 757], the IC50 was determined as 68.9 nM.

For the molecule `CC(=O)N[C@@H](Cc1ccc(F)c(F)c1)[C@H](O)CN[C@H]1CC(C)(C)Oc2c1cc(CC(C)(C)C)nc2N1CCCC1` [compound 758], the IC50 worked out at 40.1 nM.

Turning to `CC(=O)N[C@@H](Cc1cc(F)cc(N(C)C)c1)[C@H](O)CN[C@H]1CC2(CCC2)Oc2ncc(CC(C)(C)C)cc21` [compound 759], the IC50 was found to be 17.9 nM.

In the case of `CNc1nc(CC(C)(C)C)cc2c1OC(C)(C)C[C@@H]2NC[C@@H](O)[C@H](Cc1ccc(F)c(F)c1)NC(C)=O` [compound 760], the IC50 was determined as 11.3 nM.

For `CC(=O)N[C@@H](Cc1ccc(F)cc1)[C@H](O)CN[C@H]1CC(C)(C)Oc2c1cc(CC(C)(C)C)nc2Cl` [compound 761], the IC50 was found to be 126 nM.

Turning to `CC(=O)N[C@@H](Cc1ccc(F)cc1)[C@H](O)CN[C@H]1CC(C)(C)Oc2c1cc(CC(C)(C)C)nc2N(C)C` [compound 762], the IC50 was 166 nM.

With `CC(=O)N[C@@H](Cc1cc(F)cc(Br)c1)[C@H](O)CN[C@H]1CC2(CCC2)Oc2ncc(CC(C)(C)C)cc21` [compound 763], the IC50 came out at 6.49 nM.

With `CC(=O)N[C@@H](Cc1cc(F)cc(F)c1)[C@H](O)CN[C@H]1CC2(CC(C)C2)Oc2ncc(CC(C)(C)C)cc21` (stereo partly shown) [compound 764], the IC50 is 1.55 nM.

As to `CC(=O)N[C@@H](Cc1cc(F)cc(F)c1)[C@H](O)CN[C@H]1C[C@]2(C[C@H](C)C2)Oc2ncc(CC(C)(C)C)cc21` [compound 765, N-((1S,2R)-1-((3,5-difluorophenyl)methyl)-3-(((1s,3R,4′S)-6′-(2,2-dimethylpropyl)-3-methyl-3′,4′-dihydrospiro[cyclobutane-1,2′-pyrano[2,3-b]pyridin]-4′-yl)amino)-2-hydroxypropyl)acetamide], the IC50 is 1.14 nM.

With `CC(=O)N[C@@H](Cc1ccc(F)cc1)[C@H](O)CN[C@H]1CC2(CC(C)C2)Oc2ncc(CC(C)(C)C)cc21` (stereo partly drawn) [compound 766, N-((1S,2R)-3-(((4′S)-6′-(2,2-dimethylpropyl)-3-methyl-3′,4′-dihydrospiro[cyclobutane-1,2′-pyrano[2,3-b]pyridin]-4′-yl)amino)-1-((4-fluorophenyl)methyl)-2-hydroxypropyl)acetamide], the IC50 was determined as 15.8 nM.

For the molecule `CC(=O)N[C@@H](Cc1ccc(F)cc1)[C@H](O)CN[C@H]1C[C@]2(C[C@H](C)C2)Oc2ncc(CC(C)(C)C)cc21` [compound 767, N-((1S,2R)-3-(((1s,3R,4′S)-6′-(2,2-dimethylpropyl)-3-methyl-3′,4′-dihydrospiro[cyclobutane-1,2′-pyrano[2,3-b]pyridin]-4′-yl)amino)-1-((4-fluorophenyl)methyl)-2-hydroxypropyl)acetamide], the IC50 is 5.7 nM.

Take `CC(=O)N[C@@H](Cc1cccc(F)c1F)[C@H](O)CN[C@H]1C[C@]2(C[C@@H](C)C2)Oc2ncc(CC(C)(C)C)cc21` [compound 768, N-((1S,2R)-1-((2,3-difluorophenyl)methyl)-3-(((1r,3S,4′S)-6′-(2,2-dimethylpropyl)-3-methyl-3′,4′-dihydrospiro[cyclobutane-1,2′-pyrano[2,3-b]pyridin]-4′-yl)amino)-2-hydroxypropyl)acetamide]: the IC50 was determined as 38.9 nM.

Turning to `CC(=O)N[C@@H](Cc1cccc(F)c1F)[C@H](O)CN[C@H]1C[C@]2(C[C@H](C)C2)Oc2ncc(CC(C)(C)C)cc21` [compound 769, N-((1S,2R)-1-((2,3-difluorophenyl)methyl)-3-(((1s,3R,4′S)-6′-(2,2-dimethylpropyl)-3-methyl-3′,4′-dihydrospiro[cyclobutane-1,2′-pyrano[2,3-b]pyridin]-4′-yl)amino)-2-hydroxypropyl)acetamide], the IC50 stood at 33.8 nM.

As to `CC(=O)N[C@@H](Cc1cccc(F)c1)[C@H](O)CN[C@H]1C[C@]2(C[C@H](C)C2)Oc2ncc(CC(C)(C)C)cc21` [compound 770, N-((1S,2R)-3-(((1s,3R,4′S)-6′-(2,2-dimethylpropyl)-3-methyl-3′,4′-dihydrospiro[cyclobutane-1,2′-pyrano[2,3-b]pyridin]-4′-yl)amino)-1-((3-fluorophenyl)methyl)-2-hydroxypropyl)acetamide], the IC50 is 2.46 nM.

As to `CC(=O)N[C@@H](Cc1ccccc1)[C@H](O)CN[C@H]1CC2(CCC2)Oc2ccc(NC3CCCC3)cc21` [compound 771], the IC50 is 166 nM.

Regarding `CC(=O)N[C@@H](Cc1ccccc1)[C@H](O)CN[C@H]1CC2(CCC2)Oc2ccc(NC(C)(C)C)cc21` [compound 772], the IC50 was found to be 981 nM.

As to `CC(=O)N[C@@H](Cc1cc(F)cc(F)c1)[C@H](O)CN[C@H]1CC2(CCC2)Oc2c1cc(Cl)cc2-n1ccnc1` [compound 773], the IC50 was found to be 21.9 nM.

Take `CC(=O)N[C@@H](Cc1cc(F)cc(F)c1)[C@H](O)CN[C@H]1CC2(CCC2)Oc2ccc(Br)cc21` [compound 774]: the IC50 was 88.2 nM.

`CC(=O)N[C@@H](Cc1cc(F)cc(F)c1)[C@H](O)CN[C@H]1CC2(CCC2)Oc2c1cc(Cl)cc2-n1cnc2ccccc21` [compound 775]: the IC50 was found to be 212 nM.

Consider `CC(=O)N[C@@H](Cc1cc(F)cc(F)c1)[C@H](O)CN[C@H]1CC2(CCC2)Oc2c1cc(Cl)cc2-n1cccn1` [compound 776], for which the IC50 was found to be 124 nM.

For the molecule `CC(=O)N[C@@H](Cc1cc(F)cc(F)c1)[C@H](O)CN[C@H]1CC2(CCC2)Oc2ccc(-n3cccn3)cc21` [compound 777], the IC50 stood at 41.2 nM.

`CC(=O)N[C@@H](Cc1ccccc1)[C@H](O)CN[C@H]1CC2(CCC2)Oc2ccc(-c3cccs3)cc21` [compound 778]: the IC50 was determined as 83.3 nM.
